From US9068343B2, “Construction element” (Termite Solutions Victoria Pty Ltd., priority 2010, dated 2015)

What was measured:
[1] = Thermogravimetric study of the stability of bifenthrin (thermal balance); assay type: physicochemical; settings: thermogravimetric study using a thermal balance; threshold temperature of decomposition
Experimental: In order to determine whether extrusion-based masterbatch preparation was possible without excessive thermal decomposition or volatilization of bifenthrin, a thermogravimetric study was performed using a thermal balance.

[2] = Evaporative loss of active during extrusion-based masterbatch preparation; assay type: physicochemical; settings: 10% bifenthrin melt mixed into EVA-LLDPE-silicate carrier resin, masterbatch pellets
Experimental: A masterbatch polymeric carrier resin was prepared by melt mixing bifenthrin (10% wt. percentage), low melting EVA polymer and either a high melt index linear low density polyethylene (LLDPE) or low density polyethylene (LDE).
In this way, 10% of the active bifenthrin was incorporated into an EVA-LLDPE-silicate carrier resin and masterbatch pellets produced.

Cc1c(COC(=O)[C@@H]2[C@H](/C=C(\Cl)C(F)(F)F)C2(C)C)cccc1-c1ccccc1 (racemic) [bifenthrin]
temperature at which degradation of the active occurs [1]: about 180 °C
evaporative losses of the active [2]: no measurable evaporative losses
